Data set [1] can be described thus: Stability of the amorphous state on storage judged by XRPD. The format is physicochemical. The note with it: after 8 weeks of storage. As for the experimental part: The invention therefore relates to a stable amorphous form of telithromycin (3-De[(2,6-dideoxy-3-C-methyl-3-O-methyl-α-L-ribohexopyranosyl)oxy]-11,12-dideoxy-6-O-methyl-3-oxo-12,11-[oxycarbonyl[[4-[4-(3-pyridinyl)-1H-imidazol-1-yl]butyl]imino]]erythromycin). […] The stable amorphous form of telithromycin as obtained according to example 2 was analyzed by X-ray powder diffraction diagrams, measured using an AXS-Bruker D-8 diffractometer (Cu-radiation, Bragg Brentano Optics, 40 kV, 40 mA, steps 0.01°, time 2 seconds, cut-off 40°, standard sample carrier).

A short description of data set [2]: Stress storage in closed vial, impurity increase by HPLC. The note with it: closed vial at 80° C. for 24 hours; spray-dried sample of Example 1. The format is physicochemical. Here is the method:
The sample was stressed in a closed vial at 80° C. for 24 hours. An increase in impurities of 0.2 area % was observed when measured by HPLC under the following conditions: column: symmetry C18 3.5 μm; eluent: buffer pH 4.4 (4.76 g KH2PO4 in 2000 ml H2O adjusted to pH 4.4 using H3PO4), acetonitrile (2000 ml buffer+666 ml acetonitrile); measurement at a wavelength of 205 nm; inj. Vol […]; temperature 40° C.

Experimental findings from patent US8222380B2, “Amorphous telithromycin compound” (Sandoz AG, priority 2006, dated 2012) are described below.

Consider `CCC1OC(=O)[C@H](C)C(=O)[C@H](C)[C@@H](OC2OC(C)CC(N(C)C)C2O)[C@](C)(OC)C[C@@H](C)C(=O)[C@H](C)[C@H]2N(CCCCn3cnc(-c4cccnc4)c3)C(=O)O[C@]12C` (stereo partly drawn) [amorphous telithromycin, 3-De[(2,6-dideoxy-3-C-methyl-3-O-methyl-α-L-ribohexopyranosyl)oxy]-11,12-dideoxy-6-O-methyl-3-oxo-12,11-[oxycarbonyl[[4-[4-(3-pyridinyl)-1H-imidazol-1-yl]butyl]imino]]erythromycin], for which, in data set [1], the “presence of crystalline telithromycin as judged by X-ray powder diffractogram” value is “no signs of the presence of crystalline telithromycin”. Besides, in data set [2], the “increase in impurities measured by HPLC” value is 0.2 area %.
